Assay results published in paper PMC9923724, “Half sandwich-type osmium, ruthenium, iridium and rhodium complexes with bidentate glycosyl heterocyclic ligands induce cytostasis in platinum-resistant ovarian cancer cells and bacteriostasis in Gram-positive multiresistant bacteria” (Frontiers in Chemistry, 2023).

Experiments:
Format in all cases: cell-based
[1] = test system: A2780 ovarian cancer cells; experiment: SRB assay (cytostasis, 48 h) on A2780 cells; conditions: 48 h treatment
Procedure: First, we assessed a set of osmium complexes (similar to Ia [[Kacsir et al., 2022]) in Figure 1] and their sugar-derived ligands, in which the benzoyl protective groups on the carbohydrate moiety were replaced by aliphatic acyl groups of different chain length (straight chain C3-C7–CO). Osmium was selected as a central ion, since osmium complexes had the best biological activity in our previous studies ([Balázs et al., 2022]; [Kacsir et al., 2022]). These compounds were tested on A2780 ovarian cancer cells for toxicity and cytostasis. The therapy of ovarian cancer is centered around platinum compounds ([Brown et al., 2019]; [Sipos et al., 2021]), therefore, it was logical to use a cellular model of ovarian cancer for the initial testing of the compounds. Toxicity was assessed using the MTT assay that measures the activity of mitochondrial complex I. We chose 4 h long treatment as in an MTT assay this time point is suitable to detect rapid, direct toxicity. Cytostasis was assessed after 48 h of treatment using the SRB assay that assesses protein content that corresponds to cell count. The characteristics of the compounds are detailed in Table 2.
3 × 10^3 A2780 cells, were plated to 96 well plates. Cells were treated with the compounds in the concentrations indicated for either 4 h for an MTT assay or for 48 h for an SRB assay. Data is represented as average ± SD, from three biological replicates; individual assays were performed in duplicates. Values were normalized for vehicle treated cells, absorbance for vehicle treated cells equals to 1. […] Except for the Os-6 complex, Two-way ANOVA test was performed and all values were compared with each other (Tukey’s post hoc test). […] Non-linear regression was performed on the data.
(§1) 3 × 10^3 A2780 cells, 2 × 10^3 ID8 cells and 4 × 10^3 primary fibroblasts were plated to 96 well plates. Cells were treated with the compounds in the concentrations indicated for either 4 h for an MTT assay or for 48 h for an SRB assay. Data is represented as average ± SD, from three biological replicates; individual assays were performed in duplicates. Values were normalized for vehicle treated cells, absorbance for vehicle treated cells equals to 1. Statistical significance was assessed using two-way ANOVA test comparing the free ligand and each complex as a complex-ligand pair. Before the test normality was assessed using the D’Agostino-Pearson test. The ID8 SRB Ir-7+L-7 dataset had lognormal distribution. […] All other datasets had normal distribution. For better visibility the p values are presented in an excel sheet at https://figshare.com/s/2c942a812caea8869a67. Non-linear regression was performed on the A2780 SRB and the ID8 SRB datasets.
(§2) The assay was performed similar to ([Kovács et al., 2019]). Cells were seeded in 96 well plates the day before the assay. Cells were treated with the compounds for 48 h. Cells were fixed with 10% trichloroacetic acid (TCA). Fixed cells were washed in distilled water 3 times followed by staining with SRB (0.4 m/V% dissolved in 1% acetic acid) for 10 min. Stained cells were washed in 1% acetic acid 5 times; acetic acid was removed and cells were left to dry. Protein-bound SRB was released by adding 100 µl 10 mM Tris base. Plates were measured in a plate photometer (Thermo Scientific Multiscan GO spectrophotometer, Waltham, MA, United States) at 540 nm. On each plate wells were designed to contain vehicle-treated cells. In calculations the readings for these wells was considered as 1 and all readings were expressed relative to these values.
Statistical analysis was performed using 8.0.1 version of Graphpad Prism. Values were tested for normal distribution using the D’Agostino and Pearson normality test. When necessary, values were log normalized or were normalized using the Box-Cox normalization method ([Box and Cox, 1964]) as indicated in the figure captions. […]

[2] = test system: Capan2 pancreatic adenocarcinoma cells; experiment: SRB assay (48 h) on Capan2 cells
Procedure: (§3) 3 × 10^3 Capan2 cells, 2 × 10^3 Saos cells and 8 × 10^3 L428 were plated to 96 well plates. Cells were treated with the compounds in the concentrations for 48 h. Then for Capan2 and Saos SRB assay was performed, L428 cells were counted using a Burker chamber. Data is represented as average ± SD, from three biological replicates; individual assays were performed in duplicates. Values were normalized for vehicle treated cells, absorbance for vehicle treated cells equals to 1. Normality was checked using the Shapiro-Wilk test. The Saos Os-7 dataset was normalized using the Box-Cox method, other datasets had normal distribution. Each complex was individually assessed for statistical significance using One-way ANOVA test followed by Dunnett’s post hoc test; all values were compared to the values of the lowest concentration. For better visibility the p values are presented in an excel sheet at https://figshare.com/s/2c942a812caea8869a67. Non-linear regression was performed on the Capan2 and Saos datasets.
Capan2 cells were maintained in MEM, 10% fetal bovine serum, 1% Penicillin/Streptomycin, 2 mM Glutamine.
as §2
Statistical analysis was performed using 8.0.1 version of Graphpad Prism. Values were tested for normal distribution using the D’Agostino and Pearson normality test. When necessary, values were log normalized or were normalized using the Box-Cox normalization method ([Box and Cox, 1964]) as indicated in the figure captions. Non-linear regression was performed using the built-in “[Inhibitor] vs. response—Variable slope (four parameters), least square fit” utility of Graphpad that yielded IC50 and Hill slope values.

[3] = test system: L428 Hodgkin lymphoma cells; experiment: Cell proliferation on L428 cells (counted in Burker chamber); conditions: head says SRB, cells counted using a Burker chamber
Procedure: as §3
Cells were seeded in 96 well plates the day before the assay. Cells were treated with the compounds for […]. Cells were counted using a Burker chamber. On each plate wells were designed to contain untreated cells. In calculations the readings for these wells was considered as 1 and all readings were expressed relative to these values.

[4] = test system: primary dermal fibroblasts; experiment: MTT reduction assay (4 h) on primary fibroblasts; conditions: primary human dermal fibroblasts
Procedure: as §1
(§4) Human primary dermal fibroblasts were cultured in low glucose DMEM (1 g/L glucose) medium supplemented with 20% fetal calf serum, 2 mM glutamine, 1% penicillin-streptomycin.
MTT reduction assay measures the activity of mitochondrial complex I and can be used to detect toxicity ([Virág et al., 1998]; [Henslee et al., 2016]). The assay was performed similar to ([Bakondi et al., 2003]). Briefly, cells were plated in 96 well plates the day before the assay. Cells were treated with the compounds for 4 h, then MTT was added in 0.5 mg/ml final concentration and cells were incubated at 37°C in a cell incubator. Culture media was removed and the reduced MTT dye was dissolved in dimethyl-sulfoxide (DMSO) and plates were measured in a plate photometer (Thermo Scientific Multiscan GO spectrophotometer, Waltham, MA, United States) at 540 nm. On each plate wells were designed to contain untreated/vehicle-treated cells. In calculations the readings for these wells was considered as 1 and all readings were expressed relative to these values.

[5] = test system: primary dermal fibroblasts; experiment: SRB assay (48 h) on primary fibroblasts; conditions: primary human dermal fibroblasts
Procedure: as §1, §4, §2

| Structure (SMILES) | A2780 SRB IC50 [1] | A2780 SRB Max. (maximal inhibition) [1] [%] | IC50 [1] [µM] | Capan2 SRB Max. (maximal inhibition) [2] [%] | IC50 [2] [µM] | L428 maximal inhibition (cell count) [3] [%] | Fibroblast MTT Max. (maximal inhibition) [4] [%] | Fibroblast SRB Max. (maximal inhibition) [5] [%] |
| --- | --- | --- | --- | --- | --- | --- | --- | --- |
| Cc1ccc(C(C)C)cc1.F[P-](F)(F)(F)(F)F.O=C(OCC1OC(n2cc(-c3ccc4ccccc4n3)nn2)C(OC(=O)c2ccccc2)C(OC(=O)c2ccccc2)C1OC(=O)c1ccccc1)c1ccccc1.[Cl][Ru+] (mixture of isomers) [Ru-7] | submicromolar or low micromolar | >90 | 0.847 | 39.80 | 1.39 | 52.73 | 23.93 | 50.04 |
| Cc1c(C)c(C)[c-](C)c1C.F[P-](F)(F)(F)(F)F.O=C(OCC1OC(n2cc(-c3ccc4ccccc4n3)nn2)C(OC(=O)c2ccccc2)C(OC(=O)c2ccccc2)C1OC(=O)c1ccccc1)c1ccccc1.[Cl][Ir+2] (mixture of isomers) [Ir-7] | submicromolar or low micromolar | >90 | 0.891 | 48.83 | 1.93 | >90 | 12.81 | 42.83 |
| Cc1ccc(C(C)C)cc1.F[P-](F)(F)(F)(F)F.O=C(OCC1OC(n2cc(-c3ccc4ccccc4n3)nn2)C(OC(=O)c2ccccc2)C(OC(=O)c2ccccc2)C1OC(=O)c1ccccc1)c1ccccc1.[Cl][Os+] (mixture of isomers) [Os-7] | submicromolar or low micromolar | >90 | 0.578 | 59.11 | 1.35 | >90 | 30.97 | 48.94 |
